# In article PMC5431435, “A short artificial antimicrobial peptide shows potential to prevent or treat bone infections” (Scientific Reports, 2017):
# Key:
# [1] = test system: S. aureus internalized in human primary osteoblast-like cells; test: Effect against internalized bacteria; type: cell-based, Staphylococcus aureus; settings: 7.5 μg/ml, n = 7
# Experimental: Human primary osteoblast-like cells were cultivated in 24-well plates with cultivation medium until they reached a minimum confluence of 80%. For the experiment, cells were washed and S. aureus (ATCC 29213) in cultivation medium added (~2 × 10^7 cfu/ml). After an incubation of 45 minutes, extracellular bacteria were killed using 200 µg/ml gentamicin dissolved in CM with 10% FCS, without P/S. After 1 hour incubation, gentamicin solution was removed, cells washed three times and AMP2 (33 and 67 µg/ml) in CM with only 1% FCS + no P/S added for 4 and 24 hours. As reference, 7.5 µg/ml rifampicin was used. All incubation steps were done in an incubator with 37 °C, 95% humidity and 5% CO2. For determination of the internalized bacteria, cells were lysed and the supernatant plated on CA plates. Experiment were done with n = 7.
# [2] = test system: human primary osteoblast-like cells; type: cell-based
# Experimental: (§1) (1) For the cytotoxicity test, 1 × 10^4 cells were seeded in 48-well plates with cultivation medium (CM) DMEM/Ham’s F-12 (D/H; Biochrom, Germany) + 10% fetal calf serum (FCS; Biochrom, Germany) + 1% penicillin/streptomycin (P/S; Biochrom, Germany) + 0.05 mM L-ascorbic-2 phosphate (L-Asc) + 0.05 mM β-glycerolphosphate (β-Glyc) and incubated overnight at 37 °C, 5% CO2 and 95% relative humidity. After adding the AMPs (3–542 µg/ml - depending on the AMP) or gentamicin (8–1024 µg/ml) in CM with 1% FCS, without Pen/Strep, cells were cultured for three days. Cell viability was determined with an AlamarBlue® assay before adding the AMPs and after 3 days. Alkaline phosphatase activity was measured on day 3.
# Alamar Blue® (Biozol, Germany) was done according to the manufacturer’s instruction.
# [3] = test system: human primary osteoblast-like cells; type: cell-based; remark: listed apart in the source
# Experimental: as §1
# S. aureus biofilm = test: Biofilm assay by microcalorimetry and plating (MBCB); type: cell-based, Staphylococcus aureus; settings: 128 µg/ml daptomycin, calorimetry and plating (data not shown)
# Experimental: To confirm MIC of the AMP2 by isothermal microcalorimetry, three different bouillons were tested: Mueller-Hinton II bouillon with adjusted cations (MH^++; BBL, Germany), Mueller-Hinton bouillon with low cations (MH^+; with 3–4 mg/l Ca^2+ and 5–6 mg/l Mg^2+; Oxoid, Germany) and Mueller-Hinton bouillon without cations (MH^−; Merck, Germany). AMP2 concentrations of 2–33 µg/ml were tested with the three different bouillons and gentamicin concentrations of 0.125–2 µg/ml were analyzed with MH^++. Staphylococcus aureus (ATCC 29213, 300 µl with 10^5 cfu/ml) was added to each microcalorimetry glass ampoule (Waters; Germany) containing 3.7 ml of AMP or gentamicin solution of (n = 3). The ampoules were hermetically sealed and heat flow (W) was measured for 24 hours in the calorimeter TAM III (TA Instruments, USA). For the biofilm assay, S. aureus biofilm was grown on glass beads (4 mm diameter, 60 µm pores; ROBU Glasfilter-Geräte, Germany) in MH^++ bouillon at 37 °C in an aerobe atmosphere for 24 hours. After washing with sodium chloride, beads were incubated with AMP2 (133, 267, 533 µg/ml) or daptomycin (128 µg/ml) in MH^++ bouillon for another 24 hours at 37 °C. Beads were washed again and added to the glass ampoule with fresh MH^++ bouillon. The total heat (J) was measured for 48 hours in the calorimeter. A concentration, which inhibits minimum 90% of biofilm, can be defined as the minimal biofilm inhibitory concentration (MICB). All samples were tested with n = 6.
# Furthermore, the MBC for biofilms (MBCB) where 99.9% of all bacteria are killed was determined. After measurement, bouillon and glass beads were plated on CA plates and incubated for 24 hours at 37 °C in an aerobe atmosphere.
# E. coli ATCC 25922 = test: Broth microdilution MIC and plating MBC; type: cell-based; settings: Escherichia coli, ATCC25922
# Experimental: (§2) To determine the minimal inhibitory concentration (MIC), classical broth microdilution method was performed after protocols from Wiegand et al.[15]. The influence of cations was analyzed by using cation adjusted Mueller-Hinton bouillon II with 20–25 mg/l Ca^2+ and 10–12.5 mg/l Mg^2+ (MH^++; BBL, Germany) or Mueller-Hinton bouillon without cations (MH^−; Merck, Germany) (n = 4–8).
# (§3) The maximal concentration of the AMPs was between 200–271 µg/ml. The differences in the AMP concentration are due to the purity of the peptides (absorption coefficient from 5.19 to 9.36).
# E. faecalis ATCC 29212 = test: Broth microdilution MIC and plating MBC; type: cell-based; settings: Enterococcus faecalis, ATCC29212, MH++ (with cations), n = 4–8
# Experimental: as §2, §3
# P. aeruginosa ATCC 27853 = test: Broth microdilution MIC and plating MBC; type: cell-based; settings: Pseudomonas aeruginosa; for MIC: 37 °C, 18–24 h
# Experimental: as §2, §3
# S. aureus ATCC 29213 = test: Broth microdilution MIC and plating MBC; type: cell-based; settings: Staphylococcus aureus
# Experimental: as §2, §3
# S. epidermidis PIA 8400 = test: Broth microdilution MIC and plating MBC; type: cell-based; settings: Staphylococcus epidermidis; for MIC: 1–5 × 10^5 cfu/ml, 37 °C, 18–24 h; for MBC: plated on Columbia-agar overnight 37 °C
# Experimental: as §2, §3
# S. aureus MRSA = test: Broth microdilution MIC and plating MBC, clinical isolate; type: cell-based; settings: Staphylococcus aureus, MH++ (with cations), n = 4–8
# From the text: (§4) The strains Escherichia coli (ATCC 25922), Enterococcus faecalis (ATCC 29212), Pseudomonas aeruginosa (ATCC 27853), Staphylococcus aureus (ATCC 29213) were used. In addition, following clinical isolates were used: Staphylococcus epidermidis (PIA 8400, isolated from blood cultures[48]), and two Staphylococcus aureus (MRSA and MSSA, both isolated from osteosyntheses material, kindly provided by Andrej Trampuz, Charité).
# as §2, §3
# S. aureus MSSA = test: as above; type: cell-based; settings: Staphylococcus aureus
# From the text: as §4, §2, §3
# planktonic S. aureus = test: MIC by isothermal microcalorimetry, planktonic bacteria; type: cell-based, Staphylococcus aureus; settings: Staphylococcus aureus; MH++, heat flow 24 hours, n = 3; read-out: MIC (calorimetry)
# Experimental: Mueller-Hinton II bouillon with adjusted cations (MH^++; BBL, Germany), Mueller-Hinton bouillon with low cations (MH^+; with 3-4 mg/l Ca^2+ and 5-6 mg/l Mg^2+; Oxoid, Germany) and Mueller-Hinton bouillon without cations (MH^-; Merck, Germany). AMP2 concentrations of 2-33 μg/ml were tested with the three different bouillons and gentamicin concentrations of 0.125-2 μg/ml were analyzed with MH^++. Staphylococcus aureus (ATCC 29213, 300 μl with 10^5 cfu/ml) was added to each microcalorimetry glass ampoule (Waters; […] The ampoules were hermetically sealed and heat flow (W) was measured for 24 hours in the calorimeter TAM III (TA Instruments, USA). […] ROBU […], Germany) in MH^++ bouillon at 37 °C in an aerobe atmosphere for 24 hours. […] Beads were washed again and added to the glass ampoule with fresh MH^++ bouillon. The total heat (J) was measured for 48 hours in the calorimeter. A concentration, which inhibits minimum 90% of biofilm, can be defined as the minimal biofilm inhibitory concentration (MICB). All samples were tested with n = 6.
# S. aureus (ATCC 29213) = test: Zone of inhibition test of PDLLA-coated titanium wires; type: cell-based, Staphylococcus aureus; settings: 10% w/w in poly(D,L-lactide) coating, n = 3, mean with standard deviation; day not given
# Experimental: Titanium wires (diameter 1 mm, Synthes, USA) were coated with Poly(D,L-lactide) (PDLLA, Boehringer Ingelheim, Germany) and incorporated AMP2 at three different concentrations: 10% w/w, 20% w/w, or 30% w/w. Gentamicin/PDLLA (10% w/w) or PDLLA coated wires served as control. Briefly, 100 mg PDLLA was solved in 1.5 ml ethyl acetate and the wires were coated in a dipping procedure. Details of the coating were described previously. Three nails of each group were placed on Mueller-Hinton agar plates plated with S. aureus (ATCC 29213) and the zone of inhibition (ZOI) was quantified after 1, 3, 7, and 14 days using ImageJ software.
# [4] = ATCC27853, MH++ (with cations), n = 4–8
# [5] = ATCC27853, MH− (without cations), n = 4
compound,measurement,setting,value
"CO[C@H]1/C=C/O[C@@]2(C)Oc3c(C)c(O)c4c(O)c(c(/C=N/N5CCN(C)CC5)c(O)c4c3C2=O)NC(=O)/C(C)=C\C=C\[C@H](C)[C@H](O)[C@@H](C)[C@@H](O)[C@@H](C)[C@H](OC(C)=O)[C@@H]1C [rifampicin, reference compound]",internalized bacteria compared to 0 μg/ml AMP [= 100%],[1]; 4 h,15%
same,internalized bacteria compared to 0 μg/ml AMP [= 100%],[1]; 24 h,0.0006%
"WRKFWKYLK [AMP5, 9mer cationic antimicrobial peptide … from an optimized peptide library]",concentrations with no negative effect on cell viability,[2],< 63 µg/mL
same,concentrations with significant inhibition of viability compared to the control group,[2],≥ 63 µg/mL
same,concentrations with significant inhibition of alkaline phosphatase activity compared to the control group,[3],≥ 63 µg/mL
"YRLRVKWKW [AMP1, 9mer cationic antimicrobial peptide … from an optimized peptide library]",concentrations with no negative effect on cell viability,[2],< 100 µg/mL
same,concentrations with significant inhibition of viability compared to the control group,[2],≥ 100 µg/mL
same,concentrations with significant inhibition of alkaline phosphatase activity compared to the control group,[3],all concentrations
"RRRIKIRWY [AMP4, 9mer cationic antimicrobial peptide … from an optimized peptide library]",concentrations with no negative effect on cell viability,[2],< 251 µg/mL
same,concentrations with significant inhibition of viability compared to the control group,[2],≥ 251 µg/mL
"RTKKWIVWI [AMP3, 9mer cationic antimicrobial peptide … from an optimized peptide library]",concentrations with no negative effect on cell viability,[2],< 68 µg/mL
same,concentrations with significant inhibition of viability compared to the control group,[2],≥ 68 µg/mL
daptomycin [reference compound],biofilm growth,S. aureus biofilm,completely inhibited
CNC(C)C1CCC(N)C(OC2C(N)CC(N)C(OC3OCC(C)(O)C(NC)C3O)C2O)O1 (centres unmarked) [gentamicin],MBC,"E. coli ATCC 25922; MH++ (with cations), n = 4–8",2 µg/mL
same,MIC,"E. coli ATCC 25922; MH− (without cations), 37 °C, 18–24 h, n = 4",1 µg/mL
same,MIC,"E. faecalis ATCC 29212; 37 °C, 5% CO2, 18–24 h",16 µg/mL
same,MBC,E. faecalis ATCC 29212,32 µg/mL
same,MIC,P. aeruginosa ATCC 27853; [4],1 µg/mL
same,MBC,P. aeruginosa ATCC 27853; [4],4 µg/mL
same,MIC,P. aeruginosa ATCC 27853; [5],0.25 µg/mL
same,MBC,P. aeruginosa ATCC 27853; [5],1 µg/mL
same,MBC,"S. aureus ATCC 29213; ATCC29213, MH++ (with cations), n = 4–8",0.5 µg/mL
same,MBC,"S. aureus ATCC 29213; ATCC29213, MH− (without cations), n = 4",1 µg/mL
same,MIC,"S. aureus ATCC 29213; ATCC29213, MH++ (with cations), 37 °C, 18–24 h, n = 4–8",0.5 µg/mL
same,MIC,"S. epidermidis PIA 8400; PIA8400, MH++ (cation adjusted Mueller-Hinton bouillon II), n = 4–8",0.25 µg/mL
same,MBC,"S. epidermidis PIA 8400; PIA8400, MH++ (with cations), n = 4–8",1 µg/mL
same,MIC,"S. epidermidis PIA 8400; PIA8400, MH− (Mueller-Hinton bouillon without cations), n = 4",0.125 µg/mL
same,MBC,"S. epidermidis PIA 8400; PIA8400, MH− (without cations), n = 4",0.25 µg/mL
same,MIC,S. aureus MRSA,> 32 µg/mL
same,MBC,"S. aureus MSSA; MH++ (with cations), n = 4–8",0.125 µg/mL
same,MIC,"S. aureus MSSA; MH++ (with cations), n = 4–8",0.125 µg/mL
same,MBC,"S. aureus MSSA; MH− (without cations), n = 4",1 µg/mL
same,MIC,"S. aureus MSSA; MH− (without cations), n = 4",0.25 µg/mL
same,MIC,planktonic S. aureus,1 µg/mL
same,ZOI,S. aureus (ATCC 29213),10.8 +/- 0.6 cm²
